Data reported in ChEMBL document CHEMBL3779859, “Synergistic activity of a short lipidated antimicrobial peptide (lipoAMP) and colistin or tobramycin against Pseudomonas aeruginosa from cystic fibrosis patients” (Medchemcomm, 2016).
In brackets after ≈: the same amount, converted by molar mass. Activity calls are given as the source filed them. No cut-off for these calls is given here.

Assays:
[1] = test system: Pseudomonas aeruginosa; test: Antibacterial activity against Pseudomonas aeruginosa KD491 clinical isolate assessed as delay in growth rate in exponential phase of bacterial growth curve at 1 ug/ml measured every 15 mins by microtiter plate reader method; format: functional, organism-based
[2] = test system: Pseudomonas aeruginosa; test: Antibacterial activity against Pseudomonas aeruginosa LESB58 clinical isolate assessed as delay in growth rate in exponential phase of bacterial growth curve at 1 ug/ml measured every 15 mins by microtiter plate reader method; format: functional, organism-based
[3] = test system: Pseudomonas aeruginosa; test: Antibacterial activity against Pseudomonas aeruginosa PAO1 clinical isolate assessed as delay in growth rate in exponential phase of bacterial growth curve at 0.25 ug/ml measured every 15 mins by microtiter plate reader method; format: functional, organism-based
[4] = test system: Pseudomonas aeruginosa; test: Antibacterial activity against Pseudomonas aeruginosa Clone C clinical isolate assessed as delay in growth rate in exponential phase of bacterial growth curve at 0.25 ug/ml measured every 15 mins by microtiter plate reader method; format: functional, organism-based
[5] = test system: Pseudomonas aeruginosa; test: Antibacterial activity against Pseudomonas aeruginosa VW1633 clinical isolate after 16 to 20 hrs by microdilution assay; format: functional
[6] = test system: Pseudomonas aeruginosa; test: Antibacterial activity against Pseudomonas aeruginosa LES431 clinical isolate after 16 to 20 hrs by microdilution assay; format: functional
[7] = test system: Pseudomonas aeruginosa; test: Antibacterial activity against Pseudomonas aeruginosa KD491 clinical isolate after 16 to 20 hrs by microdilution assay; format: functional
[8] = test system: Pseudomonas aeruginosa; test: Antibacterial activity against Pseudomonas aeruginosa D599 clinical isolate after 16 to 20 hrs by microdilution assay; format: functional
[9] = test system: Pseudomonas aeruginosa; test: Antibacterial activity against Pseudomonas aeruginosa PAO1 clinical isolate after 16 to 20 hrs by microdilution assay; format: functional
[10] = test system: Pseudomonas aeruginosa; test: Antibacterial activity against Pseudomonas aeruginosa Clone C clinical isolate after 16 to 20 hrs by microdilution assay; format: functional
[11] = test system: Pseudomonas aeruginosa; test: Antibacterial activity against Pseudomonas aeruginosa VW1501 clinical isolate after 16 to 20 hrs by microdilution assay; format: functional
[12] = test system: Pseudomonas aeruginosa; test: Antibacterial activity against Pseudomonas aeruginosa kl 1.1 clinical isolate after 16 to 20 hrs by microdilution assay; format: functional
[13] = test system: Pseudomonas aeruginosa; test: Antibacterial activity against Pseudomonas aeruginosa KD557 clinical isolate after 16 to 20 hrs by microdilution assay; format: functional
[14] = test system: Pseudomonas aeruginosa; test: Antibacterial activity against Pseudomonas aeruginosa VW1540 clinical isolate after 16 to 20 hrs by microdilution assay; format: functional
[15] = test system: Pseudomonas aeruginosa; test: Antibacterial activity against Pseudomonas aeruginosa VW178 clinical isolate after 16 to 20 hrs by microdilution assay; format: functional
[16] = test system: Pseudomonas aeruginosa; test: Antibacterial activity against Pseudomonas aeruginosa VW1485 clinical isolate after 16 to 20 hrs by microdilution assay; format: functional
[17] = test system: Pseudomonas aeruginosa; test: Antibacterial activity against Pseudomonas aeruginosa VW0247 clinical isolate after 16 to 20 hrs by microdilution assay; format: functional
[18] = test system: Pseudomonas aeruginosa; test: Antibacterial activity against Pseudomonas aeruginosa kl 3.2 clinical isolate after 16 to 20 hrs by microdilution assay; format: functional
[19] = test system: Pseudomonas aeruginosa; test: Antibacterial activity against Pseudomonas aeruginosa VW1538 clinical isolate after 16 to 20 hrs by microdilution assay; format: functional
[20] = test system: Pseudomonas aeruginosa; test: Antibacterial activity against Pseudomonas aeruginosa MIDLANDS clinical isolate after 16 to 20 hrs by microdilution assay; format: functional
[21] = test system: Pseudomonas aeruginosa; test: Antibacterial activity against Pseudomonas aeruginosa LES400 clinical isolate after 16 to 20 hrs by microdilution assay; format: functional
[22] = test system: Pseudomonas aeruginosa; test: Antibacterial activity against Pseudomonas aeruginosa VW1471 clinical isolate after 16 to 20 hrs by microdilution assay; format: functional
[23] = test system: Pseudomonas aeruginosa; test: Antibacterial activity against Pseudomonas aeruginosa VW313 clinical isolate after 16 to 20 hrs by microdilution assay; format: functional
[24] = test system: Pseudomonas aeruginosa; test: Antibacterial activity against Pseudomonas aeruginosa LESB58 clinical isolate after 16 to 20 hrs by microdilution assay; format: functional
[25] = test system: Pseudomonas aeruginosa; test: Antibacterial activity against Pseudomonas aeruginosa KD491 clinical isolate assessed as growth rate in exponential phase at 0.25 ug/ml measured every 15 mins by microtiter plate reader method; format: functional, organism-based
[26] = test system: Pseudomonas aeruginosa; test: Antibacterial activity against Pseudomonas aeruginosa LESB58 clinical isolate assessed as prolongation of lag phase in bacterial growth curve at 2 ug/ml measured every 15 mins by microtiter plate reader method; format: functional, organism-based
[27] = test system: Pseudomonas aeruginosa; test: Antibacterial activity against Pseudomonas aeruginosa LESB58 clinical isolate assessed as growth rate in exponential phase at 2 ug/ml measured every 15 mins by microtiter plate reader method; format: functional, organism-based
[28] = test system: Pseudomonas aeruginosa; test: Antibacterial activity against Pseudomonas aeruginosa Clone C clinical isolate assessed as inhibition of biofilm formation at 2 ug/ml after 18 to 22 hrs by crystal violet staining-based polystyrene microtiter plate reader method; format: functional, organism-based
[29] = test system: Pseudomonas aeruginosa; test: Antibacterial activity against Pseudomonas aeruginosa KD491 clinical isolate assessed as prolongation time of lag phase in bacterial growth curve at 0.25 ug/ml measured every 15 mins by microtiter plate reader method; format: functional, organism-based
[30] = test system: Pseudomonas aeruginosa; test: Antibacterial activity against Pseudomonas aeruginosa PAO1 clinical isolate assessed as inhibition of biofilm formation at 2 ug/ml after 18 to 22 hrs by crystal violet staining-based polystyrene microtiter plate reader method; format: functional, organism-based

Row | Compound | MIC [5] [µg/mL] | MIC [6] [µg/mL] | MIC [7] [µg/mL] | MIC [8] [µg/mL] | MIC [9] [µg/mL] | MIC [10] [µg/mL] | MIC [11] [µg/mL] | MIC [12] [µg/mL] | MIC [13] [µg/mL] | MIC [14] [µg/mL] | MIC [15] [µg/mL] | MIC [16] [µg/mL] | MIC [17] [µg/mL] | MIC [18] [µg/mL] | MIC [19] [µg/mL] | MIC [20] [µg/mL] | MIC [21] [µg/mL] | MIC [22] [µg/mL] | MIC [23] [µg/mL] | MIC [24] [µg/mL] | other results
1 | NC[C@H]1O[C@H](O[C@H]2[C@H](O)[C@@H](O[C@H]3O[C@H](CO)[C@@H](O)[C@H](N)[C@H]3O)[C@H](N)C[C@@H]2N)[C@H](N)C[C@@H]1O [TOBRAMYCIN] | 0.125 (≈ 0.267 µM) | 2 (≈ 4.28 µM) | 8 (≈ 17.1 µM) | 0.5 (≈ 1.07 µM) | 2 (≈ 4.28 µM) | 1 (≈ 2.14 µM) | 4 (≈ 8.56 µM) | 4 (≈ 8.56 µM) | 1 (≈ 2.14 µM) | 0.125 (≈ 0.267 µM) | 32 (≈ 68.4 µM) | 16 (≈ 34.2 µM) | 4 (≈ 8.56 µM) | 16 (≈ 34.2 µM) | 8 (≈ 17.1 µM) | 2 (≈ 4.28 µM) | 8 (≈ 17.1 µM) | 8 (≈ 17.1 µM) | 16 (≈ 34.2 µM) | 8 (≈ 17.1 µM) | Activity [1]: Active; Activity [2]: Active; Activity [3]: Active; Activity [4]: Active
2 | COLISTIN | 2 | 2 | 2 | 4 | 4 | 4 | 2 | 4 | 8 | 4 | 4 | > 128 | 2 | 8 | 2 | 4 | 4 | 4 | 4 | 32 | Activity [25]: inactive; Activity [26]: Active; Activity [27]: inactive; inhibition [28]: < 20%; TIME [29]: 4 h; inhibition [30]: < 20%
